# Assay results published in ChEMBL document CHEMBL1154484, “A QSAR study for the cytotoxic activities of taxoids against macrophage (MPhi)-like cells” (Eur J Med Chem, 2009).
# How the values were obtained:
# [1] = Cytotoxicity against mouse J7.DEF.3 cells; assay type: cell-based
# [2] = Cytotoxicity against mouse J774.1 cells; assay type: cell-based
SMILES,log(1/C) [1],log(1/C) [2]
CC(=O)O[C@H]1C(=O)[C@@]2(C)[C@H]([C@H](OC(=O)c3ccccc3)[C@]3(O)C[C@H](OC(=O)[C@H](O)[C@@H](NC(=O)c4ccco4)c4ccccc4)C(C)=C1C3(C)C)[C@]1(OC(C)=O)CO[C@@H]1C[C@@H]2O,6.7,8.3
CC(=O)O[C@H]1C(=O)[C@@]2(C)[C@H]([C@H](OC(=O)c3ccccc3)[C@]3(O)C[C@H](OC(=O)[C@H](O)[C@@H](NC(=O)c4ccc(C)cc4)c4ccccc4)C(C)=C1C3(C)C)[C@]1(OC(C)=O)CO[C@@H]1C[C@@H]2O,7.82,7.77
CC(=O)O[C@H]1C(=O)[C@@]2(C)[C@H]([C@H](OC(=O)c3ccccc3)[C@]3(O)C[C@H](OC(=O)[C@H](O)[C@@H](NC(=O)c4ccc(C(C)(C)C)cc4)c4ccccc4)C(C)=C1C3(C)C)[C@]1(OC(C)=O)CO[C@@H]1C[C@@H]2O,7.6,7.62
CCc1ccc(C(=O)N[C@@H](c2ccccc2)[C@@H](O)C(=O)O[C@H]2C[C@@]3(O)[C@@H](OC(=O)c4ccccc4)[C@@H]4[C@]5(OC(C)=O)CO[C@@H]5C[C@H](O)[C@@]4(C)C(=O)[C@H](OC(C)=O)C(=C2C)C3(C)C)cc1,7.85,7.82
COc1ccc(C(=O)N[C@@H](c2ccccc2)[C@@H](O)C(=O)O[C@H]2C[C@@]3(O)[C@@H](OC(=O)c4ccccc4)[C@@H]4[C@]5(OC(C)=O)CO[C@@H]5C[C@H](O)[C@@]4(C)C(=O)[C@H](OC(C)=O)C(=C2C)C3(C)C)cc1,7.43,7.23
CC(=O)O[C@H]1C(=O)[C@@]2(C)[C@H]([C@H](OC(=O)c3ccccc3)[C@]3(O)C[C@H](OC(=O)[C@H](O)[C@@H](NC(=O)Cc4ccccc4)c4ccccc4)C(C)=C1C3(C)C)[C@]1(OC(C)=O)CO[C@@H]1C[C@@H]2O,7.32,7.11
CC(=O)O[C@H]1C(=O)[C@@]2(C)[C@H]([C@H](OC(=O)c3ccccc3)[C@]3(O)C[C@H](OC(=O)[C@H](O)[C@@H](NC(=O)c4ccc(F)cc4)c4ccccc4)C(C)=C1C3(C)C)[C@]1(OC(C)=O)CO[C@@H]1C[C@@H]2O,7.77,7.68
CC(=O)O[C@@]12CO[C@@H]1C[C@H](O)[C@@]1(C)C(=O)[C@H](O)C3=C(C)[C@@H](OC(=O)[C@H](O)[C@@H](NC(=O)OC(C)(C)C)c4ccccc4)C[C@@](O)([C@@H](OC(=O)c4ccccc4)[C@H]21)C3(C)C.O.O.O [DOCETAXEL],8.14,8.24
CC(=O)O[C@H]1C(=O)[C@@]2(C)[C@H]([C@H](OC(=O)c3ccccc3)[C@]3(O)C[C@H](OC(=O)[C@H](O)[C@@H](NC(=O)c4ccccc4)c4ccccc4)C(C)=C1C3(C)C)[C@]1(OC(C)=O)CO[C@@H]1C[C@@H]2O [PACLITAXEL],7.52,7.48
CC(=O)O[C@H]1C(=O)[C@@]2(C)[C@H]([C@H](OC(=O)c3ccccc3)[C@]3(O)C[C@H](OC(=O)[C@H](O)[C@@H](NC(=O)c4cccs4)c4ccccc4)C(C)=C1C3(C)C)[C@]1(OC(C)=O)CO[C@@H]1C[C@@H]2O,7.8,8.7
COc1ccc(C(=O)N[C@@H](c2ccccc2)[C@@H](O)C(=O)O[C@H]2C[C@@]3(O)[C@@H](OC(=O)c4ccccc4)[C@@H]4[C@]5(OC(C)=O)CO[C@@H]5C[C@H](O)[C@@]4(C)C(=O)[C@H](OC(C)=O)C(=C2C)C3(C)C)c(OC)c1,7.08,7.12
CC(=O)O[C@H]1C(=O)[C@@]2(C)[C@H]([C@H](OC(=O)c3ccccc3)[C@]3(O)C[C@H](OC(=O)[C@H](O)[C@@H](NC(=O)c4ccc(Cl)cc4)c4ccccc4)C(C)=C1C3(C)C)[C@]1(OC(C)=O)CO[C@@H]1C[C@@H]2O,7.59,7.52
CC(=O)O[C@H]1C(=O)[C@@]2(C)[C@H]([C@H](OC(=O)c3ccccc3)[C@]3(O)C[C@H](OC(=O)[C@H](O)[C@@H](NC(=O)/C=C/c4ccccc4)c4ccccc4)C(C)=C1C3(C)C)[C@]1(OC(C)=O)CO[C@@H]1C[C@@H]2O,7.11,7.52
CC(=O)O[C@H]1C(=O)[C@@]2(C)[C@H]([C@H](OC(=O)c3ccccc3)[C@]3(O)C[C@H](OC(=O)[C@H](O)[C@@H](NC(=O)c4ccc(-c5ccccc5)cc4)c4ccccc4)C(C)=C1C3(C)C)[C@]1(OC(C)=O)CO[C@@H]1C[C@@H]2O,6.85,7.31
CC(=O)O[C@H]1C(=O)[C@@]2(C)[C@H]([C@H](OC(=O)c3ccccc3)[C@]3(O)C[C@H](OC(=O)[C@H](O)[C@@H](NC(=O)c4ccc5ccccc5c4)c4ccccc4)C(C)=C1C3(C)C)[C@]1(OC(C)=O)CO[C@@H]1C[C@@H]2O,7.26,7.68
COc1ccc(C(=O)N[C@@H](c2ccccc2)[C@@H](O)C(=O)O[C@H]2C[C@@]3(O)[C@@H](OC(=O)c4ccccc4)[C@@H]4[C@]5(OC(C)=O)CO[C@@H]5C[C@H](O)[C@@]4(C)C(=O)[C@H](OC(C)=O)C(=C2C)C3(C)C)cc1OC,7.24,7.21
CC(=O)O[C@H]1C(=O)[C@@]2(C)[C@H]([C@H](OC(=O)c3ccccc3)[C@]3(O)C[C@H](OC(=O)[C@H](O)[C@@H](NC(=O)c4ccc(F)cc4F)c4ccccc4)C(C)=C1C3(C)C)[C@]1(OC(C)=O)CO[C@@H]1C[C@@H]2O,7.6,7.59
CCCc1ccc(C(=O)N[C@@H](c2ccccc2)[C@@H](O)C(=O)O[C@H]2C[C@@]3(O)[C@@H](OC(=O)c4ccccc4)[C@@H]4[C@]5(OC(C)=O)CO[C@@H]5C[C@H](O)[C@@]4(C)C(=O)[C@H](OC(C)=O)C(=C2C)C3(C)C)cc1,7.77,7.74
CC(=O)O[C@H]1C(=O)[C@@]2(C)[C@H]([C@H](OC(=O)c3ccccc3)[C@]3(O)C[C@H](OC(=O)[C@H](O)[C@@H](NC(=O)c4cccc5ccccc45)c4ccccc4)C(C)=C1C3(C)C)[C@]1(OC(C)=O)CO[C@@H]1C[C@@H]2O,6.43,7.17
